According to patent publication US4362663A, “Maytansinoid compound” (Takeda Chemical Industries, Ltd., priority 1979, dated 1982):
In brackets after ≈: the same amount, converted by molar mass.

Legend:
mice = assay: Acute toxicity test in mice; assay type: in vivo; conditions: intraperitoneal
From the text: In an acute toxicity test performed in mice, PND-1, PND-2, PND-3 and PND-4 were given to animals by the intraperitoneal route.

[1] = test system: Tetrahymena pyriformis W strain; assay: Minimal inhibitory concentration, serial broth dilution method; assay type: cell-based; conditions: 28° C., 44 to 48 hours
Protocol: On the other hand, Tetrahymena pyriformis W strain, as a test organism, was cultivated on an assay medium [Proteose-peptone (Difco) 20 g, yeast extract 1 g, glucose 2 g, distilled water 1000 ml, 1 M phosphate buffer (pH 7.0) 10 ml] at 28° C. for 44 to 48 hours and the minimal inhibitory concentrations of the antibiotics against said organisms were determined by the serial broth dilution method.

Bacillus subtilis = assay: Antimicrobial activity, paper disk method on trypticase-soy-agar; assay type: cell-based; conditions: paper disk diam. 8 mm, 0.02 ml of a 300 μg/ml solution
Protocol: (§1) Using trypticase-soy-agar (Baltimore Biologicals, U.S.A.) as a test medium, the minimal inhibitory concentration of each compound against the following microorganisms was determined by the paper disk method. Thus, on plate media containing the following organisms, growth inhibition was investigated using paper disks (Toyo Roshi Corp., Japan thin-type, diam. 8 mm) imbibed with 0.02 ml of a 300 μg/ml solution of PND-1, PND-2, PND-3 or PND-4.
(§2) Escherichia coli, Proteus vulgaris, Proteus mirabilis, Pseudomonas aeruginosa, Staphylococcus aureus, Bacillus subtilis, Bacillus cereus, Klebsiella pneumoniae, Serratia marcescens, Mycobacterium avium.

Klebsiella pneumoniae = assay: as above; assay type: cell-based; conditions: paper disk diam. 8 mm, 0.02 ml of a 300 μg/ml solution
Protocol: as §1, §2

Escherichia coli = assay: as above; assay type: cell-based; conditions: paper disk diam. 8 mm, 0.02 ml of a 300 μg/ml solution
Protocol: as §1, §2

Pseudomonas aeruginosa = assay: as above; assay type: cell-based; conditions: paper disk diam. 8 mm, 0.02 ml of a 300 μg/ml solution
Protocol: as §1, §2

Mycobacterium avium = assay: as above; assay type: cell-based; conditions: paper disk diam. 8 mm, 0.02 ml of a 300 μg/ml solution
Protocol: as §1, §2

Staphylococcus aureus = assay: as above; assay type: cell-based; conditions: paper disk diam. 8 mm, 0.02 ml of a 300 μg/ml solution
Protocol: as §1, §2

Serratia marcescens = assay: as above; assay type: cell-based; conditions: paper disk diam. 8 mm, 0.02 ml of a 300 μg/ml solution
Protocol: as §1, §2

Proteus mirabilis = assay: as above; assay type: cell-based; conditions: paper disk diam. 8 mm, 0.02 ml of a 300 μg/ml solution
Protocol: as §1, §2

Proteus vulgaris = assay: as above; assay type: cell-based; conditions: paper disk diam. 8 mm, 0.02 ml of a 300 μg/ml solution
Protocol: as §1, §2

Bacillus cereus = assay: as above; assay type: cell-based; conditions: paper disk diam. 8 mm, 0.02 ml of a 300 μg/ml solution
Protocol: as §1, §2

P388 tumor cell = assay: Antitumor activity in P388 tumor-bearing mice; assay type: in vivo; conditions: P388 1×10^6 cell/mouse, intraperitoneal
From the text: The therapeutic action of PND-1, PND-2, PND-3 and PND-4 against P388 tumor cell (1×10^6 cell/mouse, intraperitoneal) was investigated.

Solubility = assay type: physicochemical
[2] = test system: Hamigera avellanea IFO 7721; assay: Microbiological assay, paper disk method; assay type: cell-based; conditions: IFO7721, paper disk diam. 8 mm, 0.02 ml of a 100 μg/ml solution, pH 7.0 medium, read-out: diameter of zone of inhibition
Protocol: On the other hand, on a plate assay medium [disodium phosphate 3.5 g, monopotassium phosphate 0.5 g, yeast extract (Difco, U.S.A.) 5 g, glucose 10 g, agar 15 g, distilled water 1000 ml, pH 7.0], a microbiological assay was carried out by the paper disk method using Hamigera avellanea IFO 7721 as a test organism. On said plate medium inoculated with said organism, growth inhibition was examined using a paper disk (Toyo Roshi Corp., Japan, Thin type, diam.8 mm) imbibed with 0.02 ml of a 100 μg/ml solution of PND-1, PND-2, PND-3 or PND-4. The diameters of zones of inhibition were 28 mm for PND-1, 30 mm for PND-2, 34 mm for PND-3 and 36 mm for PND-4.

COc1cc2cc(c1Cl)NC(=O)C[C@H](OC(=O)CC(C)C)[C@]1(C)O[C@H]1[C@H](C)[C@@H]1C[C@@](O)(NC(=O)O1)[C@H](OC)/C=C/C=C(\C)C2 [PND-4]
LD0 (mice): 0.313 mg/kg | LD100 (mice): 2.5 mg/kg | MIC [1]: 1 µg/mL (≈ 1.57 µM) | growth inhibition (Bacillus subtilis): did not exhibit activity | growth inhibition (Klebsiella pneumoniae): did not exhibit activity | growth inhibition (Escherichia coli): did not exhibit activity | growth inhibition (Pseudomonas aeruginosa): did not exhibit activity | growth inhibition (Mycobacterium avium): did not exhibit activity | growth inhibition (Staphylococcus aureus): did not exhibit activity | growth inhibition (Serratia marcescens): did not exhibit activity | growth inhibition (Proteus mirabilis): did not exhibit activity | growth inhibition (Proteus vulgaris): did not exhibit activity | growth inhibition (Bacillus cereus): did not exhibit activity | life span of tumor-bearing mouse (P388 tumor cell): prolong the life span of a tumor-bearing mouse | Solubility in chloroform, ethyl acetate, acetone, ethanol, methanol, pyridine, tetrahydrofuran, dimethylsulfoxydo (Solubility): soluble | Solubility in petroleum ether, n-hexane, water (Solubility): insoluble | zone of inhibition at 100 µg/mL [2]: 36 mm

COc1cc2cc(c1Cl)NC(=O)C[C@H](OC(C)=O)[C@]1(C)O[C@H]1[C@H](C)[C@@H]1C[C@@](O)(NC(=O)O1)[C@H](OC)/C=C/C=C(\C)C2 [PND-1]
LD0 (mice): 0.313 mg/kg | LD100 (mice): 2.5 mg/kg | MIC [1]: 8 µg/mL (≈ 13.5 µM) | growth inhibition (Bacillus subtilis): did not exhibit activity | growth inhibition (Klebsiella pneumoniae): did not exhibit activity | growth inhibition (Escherichia coli): did not exhibit activity | growth inhibition (Pseudomonas aeruginosa): did not exhibit activity | growth inhibition (Mycobacterium avium): did not exhibit activity | growth inhibition (Staphylococcus aureus): did not exhibit activity | growth inhibition (Serratia marcescens): did not exhibit activity | growth inhibition (Proteus mirabilis): did not exhibit activity | growth inhibition (Proteus vulgaris): did not exhibit activity | growth inhibition (Bacillus cereus): did not exhibit activity | life span of tumor-bearing mouse (P388 tumor cell): prolong the life span of a tumor-bearing mouse | Solubility in chloroform, ethyl acetate, acetone, ethanol, methanol, pyridine, tetrahydrofuran, dimethylsulfoxydo (Solubility): soluble | Solubility in petroleum ether, n-hexane, water (Solubility): insoluble | zone of inhibition at 100 µg/mL [2]: 28 mm

COc1cc2cc(c1Cl)NC(=O)C[C@H](OC(=O)C(C)C)[C@]1(C)O[C@H]1[C@H](C)[C@@H]1C[C@@](O)(NC(=O)O1)[C@H](OC)/C=C/C=C(\C)C2 [PND-3]
LD0 (mice): 0.313 mg/kg | LD100 (mice): 2.5 mg/kg | MIC [1]: 2 µg/mL (≈ 3.22 µM) | growth inhibition (Bacillus subtilis): did not exhibit activity | growth inhibition (Klebsiella pneumoniae): did not exhibit activity | growth inhibition (Escherichia coli): did not exhibit activity | growth inhibition (Pseudomonas aeruginosa): did not exhibit activity | growth inhibition (Mycobacterium avium): did not exhibit activity | growth inhibition (Staphylococcus aureus): did not exhibit activity | growth inhibition (Serratia marcescens): did not exhibit activity | growth inhibition (Proteus mirabilis): did not exhibit activity | growth inhibition (Proteus vulgaris): did not exhibit activity | growth inhibition (Bacillus cereus): did not exhibit activity | life span of tumor-bearing mouse (P388 tumor cell): prolong the life span of a tumor-bearing mouse | Solubility in chloroform, ethyl acetate, acetone, ethanol, methanol, pyridine, tetrahydrofuran, dimethylsulfoxydo (Solubility): soluble | Solubility in petroleum ether, n-hexane, water (Solubility): insoluble | zone of inhibition at 100 µg/mL [2]: 34 mm

CCC(=O)O[C@H]1CC(=O)Nc2cc(cc(OC)c2Cl)C/C(C)=C/C=C/[C@@H](OC)[C@@]2(O)C[C@H](OC(=O)N2)[C@@H](C)[C@@H]2O[C@@]12C [PND-2]
LD0 (mice): 0.313 mg/kg | LD100 (mice): 2.5 mg/kg | MIC [1]: 4 µg/mL (≈ 6.59 µM) | growth inhibition (Bacillus subtilis): did not exhibit activity | growth inhibition (Klebsiella pneumoniae): did not exhibit activity | growth inhibition (Escherichia coli): did not exhibit activity | growth inhibition (Pseudomonas aeruginosa): did not exhibit activity | growth inhibition (Mycobacterium avium): did not exhibit activity | growth inhibition (Staphylococcus aureus): did not exhibit activity | growth inhibition (Serratia marcescens): did not exhibit activity | growth inhibition (Proteus mirabilis): did not exhibit activity | growth inhibition (Proteus vulgaris): did not exhibit activity | growth inhibition (Bacillus cereus): did not exhibit activity | life span of tumor-bearing mouse (P388 tumor cell): prolong the life span of a tumor-bearing mouse | Solubility in chloroform, ethyl acetate, acetone, ethanol, methanol, pyridine, tetrahydrofuran, dimethylsulfoxydo (Solubility): soluble | Solubility in petroleum ether, n-hexane, water (Solubility): insoluble | zone of inhibition at 100 µg/mL [2]: 30 mm

COc1cc2cc(c1Cl)NC(=O)C[C@H](O)[C@]1(C)O[C@H]1[C@H](C)[C@@H]1C[C@@](O)(NC(=O)O1)[C@H](OC)/C=C/C=C(\C)C2 [PND-0]
Solubility in chloroform, ethyl acetate, acetone, ethanol, methanol, pyridine, tetrahydrofuran, dimethylsulfoxydo (Solubility): soluble | Solubility in petroleum ether, n-hexane, water (Solubility): insoluble
